Test results taken from patent publication US5599548A, “Skin care compositions containing fatty acid amides and retinol or retinyl ester” (priority 1995, dated 1997).
Where two headings read alike, the source gives them in different places.

Key:
[1] = tested on: TGase I (keratinocyte transglutaminase level); test: Transglutaminase (TGase I) ELISA assay (keratinocyte differentiation); assay type: cell-based, human; conditions: for effect on keratinocyte TG1 levels / differentiation, in words: concentrations as in the respective Example
Procedure: (§1) Human keratinocytes, isolated from neonatal foreskin by trypsin treatment were grown in Dulbecco Modification Eagle (DME) Hams F12 (1:1) medium/10% fetal calf serum in the presence of irradiated 3T3 mouse fibroblasts for establishing dividing keratinocyte colonies. Cells were grown under the above condition until their second passage and kept frozen for future use. […] On day 7, when the cells were 80-90% confluent, they were trypsinized and plated in the serum-free medium for the various experiments.
During the process of terminal differentiation in the epidermis, a 15 nm thick layer of protein, known as the cornified envelope (CE) is formed on the inner surface of the cell periphery. The CE is composed of numerous distinct proteins which have been cross-linked together by the formation of N^ε -(γ-glutamyl) lysine isodipeptide bonds catalyzed by the action of at least two different transglutaminases (TGases) expressed in the epidermis. TGase I is expressed in abundance in the differentiated layers of the epidermis, especially the granular layer, but is absent in the undifferentiated basal epidermis. Thus TGase I is a useful marker of epidermal keratinocyte differentiation with high TGase I levels indicating a more differentiated state. An ELISA based TGase I assay, using a TGase I antibody, was used to assess the state of differentiation of the cultured keratinocytes in the examples that follow.
Keratinocytes (cultured as described above) were plated in 96 well plates at a density of 3,000 cells per well in 200 μl media. After incubation for four days the media was changed to media containing test compounds (six replicates per test). The cells were cultured for a further 72 hours after which time the media was aspirated and the plates stored at -70° C. Plates were removed from the freezer, and the cells washed with PBS. 100 μl sterile water was added and the cells were freeze fractured by freezing at -70° C. then thawing. The cells were incubated for one hour at room temperature (R/T) with PBS/3% BSA (wash buffer, bovine serum albumin), then rinsed with a fresh aliquot of wash buffer. Cells were incubated with 50 μl of primary antibodies monoclonal anti-human transglutaminase (IgG) obtained from Amersham (mouse) diluted 1:300 in wash buffer for one hour, 37° C. then rinsed two times with wash buffer. Cells were then incubated with 50 μl of secondary antibody (Feb fragment, peroxidase conjugated anti-mouse IgG obtaining from Amersham) diluted 1:200 in wash buffer for one hour at 37° C., then rinsed two times with wash buffer. Cells were incubated with substrate solution (4 mg o-phenylene diamine and 3.3 μl 30% H2 O2 in 10 ml 0.1M citrate buffer pH 5.0) for five minutes, R/T, in darkness (under aluminum foil). The reaction was stopped by the addition of 50 μl 4N H2 SO4. The absorbance of samples was read at 492 nm in the plate reader. Out of the six replicates, four were treated with both antibodies, two were treated only with the secondary antibody (i.e., to determine background binding of enzyme conjugated Ab). TGase levels were determined by subtracting background from the readings from each treatment and determining mean ±s.d. for the replicates exposed to both Ab.

[2] = tested on: Human keratinocytes; test: 3H-Thymidine incorporation (keratinocyte proliferation); assay type: cell-based; conditions: for activity at 0.25 µM / activity at 0.025 µM / activity at 0.0025 µM: Homo sapiens, Keratinocyte; for activity at 0.25 µM / mean Thymidine incorp./μg protein ± s.d: 2.5 × 10^-7 M; for activity at 0.0025 µM: 2.5 × 10^-9 M; for effect on keratinocyte proliferation, in words: concentrations as in the respective Example
Procedure: as §1
The incorporation of […] by cultured keratinocytes was used as an assay of keratinocyte proliferation. Thymidine is one of four deoxynucleosides which are the monomeric units of DNA, the universal library of genetic information in the animal kingdom. Prior to cell division of a somatic cell such as a keratinocyte, the complete genome of the cell undergoing cell division is replicated. This involves large scale DNA synthesis by the cell and enables both daughter cells to receive identical copies of the genetic material. When ^3 H-thymidine is included in the culture media of keratinocytes which are synthesizing DNA in preparation for cell division then the labelled nucleoside is incorporated into the newly synthesized DNA. The extent of incorporation of ^3 H-thymidine into a population of cells is proportional to the rate of DNA synthesis by this population of cells and therefore an indication of their cellular proliferation.
Keratinocytes (that were cultured as described above) were plated in 24 well plates at a density of 40,000 cells per well in 1 ml media. After incubation for four days or until the cells were 60-70% confluent, the media was changed. Test compounds were added (in triplicate) to the wells 24 hours after the media change, and four hours later 1μCi^3 H-Thymidine in 50 μl media was added per well. Cells were incubated for a further 24 hours. Media was removed from the cells, 10% ice cold trichloroacetic acid (TCA) added and plates were incubated on ice for 30 minutes. Cells were washed five times with 5% TCA and allowed to dissolve in 500 μl 0.1M NaOH for at least one hour (usually overnight). The preparations were neutralized with 0.1M HCl; 50 μl of the cell preparation was used to determine total protein content. Disintegrations per minute (DPM) from ^3 H labelling of DNA was determined by liquid scintillation counting of […] of the cell preparation. Thymidine incorporation results were expressed as DPM/μg protein.

[3] = 24 h, Table 7A, 24 h, n = 9, read-out: mean Thymidine incorp/μg protein ± s.d
[4] = 24 h, Table 7A, 24 h, n = 9, read-out: thymidine incorporation, % control

Question: What does the source list for `CC1=C(/C=C/C(C)=C/C=C/C(C)=C/CO)C(C)(C)CCC1` [ROH, retinol]?
Answer: activity at 0.25 µM ([1]; Homo sapiens, Keratinocyte, 72 h, Table 1B, 2.5 × 10^-7 M, 72 h, n = 3, read-out: Transglutaminase level, % control): 67%; activity at 0.025 µM ([1]; Homo sapiens, Keratinocyte, 72 h, Table 1B, 2.5 × 10^-8 M, 72 h, n = 3, read-out: Transglutaminase level, % control): 86%; activity at 0.0025 µM ([1]; Homo sapiens, Keratinocyte, 72 h, Table 1B, 2.5 × 10^-9 M, 72 h, n = 3, read-out: Transglutaminase level, % control): 97%; activity at 0.25 µM ([1]; Homo sapiens, Keratinocyte, 72 h, Table 2B, RA, ROH 2.5 × 10^-7 M, linoleoyl-DEA 10^-6 M, alone or combined, 72 h, n = 9, read-out: TGase (TG1) level, % control): 59%; activity at 0.25 µM ([1]; Homo sapiens, Keratinocyte, 72 h, Table 6A, RA, ROH 2.5 × 10^-7 M, formamide 10^-7 M, alone or combined, 72 h, n = 3, read-out: TGase (TG1) level, % control): 71%; activity at 0.25 µM ([1]; Homo sapiens, Keratinocyte, 72 h, Table 6B, RA, ROH 2.5 × 10^-7 M, acetamide 10^-7 M, alone or combined, 72 h, n = 3, read-out: TGase (TG1) level, % control): 65%; activity at 0.25 µM ([1]; Homo sapiens, Keratinocyte, 72 h, Table 6C, RA, ROH 2.5 × 10^-7 M, pentanoyl-DEA 10^-7 M, alone or combined, 72 h, n = 3, read-out: TGase (TG1) level, % control): 67%; activity at 0.25 µM ([1]; Homo sapiens, Keratinocyte, Table 4A, RA, retinol 2.5 × 10^-7 M, cocoyl-DEA 10^-7 M, alone or combined, n = 3, read-out: TGase (TG1) level, % control): 82%; activity at 0.025 µM ([1]; Homo sapiens, Keratinocyte, Table 4B, RA, retinol 2.5 × 10^-8 M, cocoyl-MEA 10^-8 M, alone or combined, n = 3, read-out: TGase (TG1) level, % control): 44%; activity at 0.25 µM ([1]; Homo sapiens, Keratinocyte, Table 5A, RA, retinol 2.5 × 10^-7 M, linoleic acid 10^-6 M, alone or combined, n = 3, read-out: TGase (TG1) level, % control): 39%; activity at 0.025 µM ([1]; Homo sapiens, Keratinocyte, Table 5B, RA, retinol 2.5 × 10^-8 M, methyl linoleate 10^-8 M, alone or combined, n = 3, read-out: TGase (TG1) level, % control): 69%; mean Transglutaminase ELISA level ± s.d ([1]; Table 1B, 2.5 × 10^-7 M, 72 h, n = 3): 0.290 ± 0.043; mean Transglutaminase ELISA level ± s.d ([1]; Table 1B, 2.5 × 10^-8 M, 72 h, n = 3): 0.371 ± 0.054; mean Transglutaminase ELISA level ± s.d ([1]; Table 1B, 2.5 × 10^-9 M, 72 h, n = 3): 0.416 ± 0.035; mean TGase ± s.d ([1]; Table 2B, RA, ROH 2.5 × 10^-7 M, linoleoyl-DEA 10^-6 M, alone or combined, 72 h, normalized to ethanol control, n = 9): 0.594 ± 0.542; mean TGase ± s.d ([1]; Table 4A, RA, retinol 2.5 × 10^-7 M, cocoyl-DEA 10^-7 M, alone or combined, n = 3): 0.145 ± 0.070; mean TGase ± s.d ([1]; Table 4B, RA, retinol 2.5 × 10^-8 M, cocoyl-MEA 10^-8 M, alone or combined, n = 3): 0.054 ± 0.013; mean TGase ± s.d ([1]; Table 5A, RA, retinol 2.5 × 10^-7 M, linoleic acid 10^-6 M, alone or combined, n = 3): 0.042 ± 0.112; mean TGase ± s.d ([1]; Table 5B, RA, retinol 2.5 × 10^-8 M, methyl linoleate 10^-8 M, alone or combined, n = 3): 0.199 ± 0.093; mean TGase level ± s.d ([1]; Table 6A (Effect on Keratinocyte TGase), RA, ROH 2.5 × 10^-7 M, formamide 10^-7 M, alone or combined, 72 h, n = 3): 0.351 ± 0.046; mean TGase level ± s.d ([1]; Table 6B (Effect on Keratinocyte TGase), RA, ROH 2.5 × 10^-7 M, acetamide 10^-7 M, alone or combined, 72 h, n = 3): 0.317 ± 0.043; mean TGase level ± s.d ([1]; Table 6C (Effect on Keratinocyte TGase), RA, ROH 2.5 × 10^-7 M, pentanoyl-DEA 10^-7 M, alone or combined, 72 h, n = 3): 0.290 ± 0.043; effect on keratinocyte TG1 levels / differentiation, in words ([1]; listed as Retinol): significantly less effective than retinoic acid at inhibiting keratinocyte differentiation; effect on keratinocyte TG1 levels / differentiation, in words ([1]; listed as retinol): decrease in transglutaminase level was dose dependent; activity at 0.25 µM ([2]; 24 h, Table 1A, first RA/ROH pair, 24 h, n = 3, read-out: thymidine incorporation, % control): 106%; activity at 0.25 µM ([2]; 24 h, Table 1A, second RA/ROH pair, 24 h, n = 3, read-out: thymidine incorporation, % control): 97%; activity at 0.25 µM ([2]; 24 h, Table 1A, third RA/ROH pair, 24 h, n = 3, read-out: thymidine incorporation, % control): 94%; activity at 0.025 µM ([2]; 24 h, Table 2A, RA, ROH 2.5 × 10^-8 M, linoleoyl-DEA 10^-9 M, alone or combined, 24 h, n = 9, read-out: thymidine incorporation, % control): 102%; activity at 0.025 µM ([2]; 24 h, Table 2A, RA, ROH 2.5 × 10^-8 M, linoleoyl-DEA 10^-9 M, alone or combined, 24 h, normalized to ethanol control, n = 9, read-out: mean Thymidine incorp./μg protein ± s.d): 102 ± 15.2%; activity at 0.025 µM ([2]; 24 h, Table 4C, RA, retinol 2.5 × 10^-8 M, palmitoyl-MEA 10^-6 M, alone or combined, n = 3, read-out: thymidine incorporation, % control): 101%; activity at 0.025 µM ([2]; 24 h, Table 4D, RA, ROH 2.5 × 10^-8 M, linoleoyl-MEA 10^-9 M, alone or combined, 24 h, n = 3, read-out: thymidine incorporation, % control): 106%; activity at 0.025 µM ([2]; 24 h, Table 4D, RA, ROH 2.5 × 10^-8 M, linoleoyl-MEA 10^-9 M, alone or combined, 24 h, normalized to ethanol control, n = 3, read-out: mean Thymidine incorp./μg protein ± s.d): 106 ± 27%; activity at 0.25 µM [2, 3]: 102 ± 16.5%; activity at 0.25 µM [2, 4]: 102%; activity at 0.025 µM ([2]; 24 h, Table 7A, 2.5 × 10^-8 M, 24 h, n = 9, read-out: mean Thymidine incorp/μg protein ± s.d): 101 ± 15.2%; activity at 0.025 µM ([2]; 24 h, Table 7A, 2.5 × 10^-8 M, 24 h, n = 9, read-out: thymidine incorporation, % control): 101%; activity at 0.0025 µM [2, 3]: 99.5 ± 12.3%; activity at 0.0025 µM [2, 4]: 100%; activity at 0.025 µM ([2]; Table 4C, RA, retinol 2.5 × 10^-8 M, palmitoyl-MEA 10^-6 M, alone or combined, control = 1.000, n = 3, read-out: mean Thymidine incorp./μg protein ± s.d): 101 ± 8.8%; mean Thymidine incorp./μg protein ± s.d ([2]; Table 1A, first RA/ROH pair, 24 h, n = 3): 2218 ± 73 DPM/μg protein; mean Thymidine incorp./μg protein ± s.d ([2]; Table 1A, second RA/ROH pair, 24 h, n = 3): 2034 ± 46 DPM/μg protein; mean Thymidine incorp./μg protein ± s.d ([2]; Table 1A, third RA/ROH pair, 24 h, n = 3): 1977 ± 19 DPM/μg protein; effect on keratinocyte proliferation, in words [2]: minor, non-significant stimulatory effect on keratinocyte proliferation; effect on keratinocyte proliferation, in words ([2]; listed as Retinol): completely ineffective at increasing keratinocyte proliferation; effect on keratinocyte proliferation, in words ([2]; listed as retinol): Neither 10^-8 M palmitoyl-MEA nor 2.5×10^-8 M retinol had an effect on keratinocyte proliferation
